Structures are written as SMILES. Where a SMILES comes first, the peptide text is derived from it.

Here are results for three molecules from publication PMC9774488, “The ER Aminopeptidases, ERAP1 and ERAP2, synergize to self-modulate their respective activities” (Frontiers in Immunology, 2022).

ERAP2, sequence (Q6P179 whole entry): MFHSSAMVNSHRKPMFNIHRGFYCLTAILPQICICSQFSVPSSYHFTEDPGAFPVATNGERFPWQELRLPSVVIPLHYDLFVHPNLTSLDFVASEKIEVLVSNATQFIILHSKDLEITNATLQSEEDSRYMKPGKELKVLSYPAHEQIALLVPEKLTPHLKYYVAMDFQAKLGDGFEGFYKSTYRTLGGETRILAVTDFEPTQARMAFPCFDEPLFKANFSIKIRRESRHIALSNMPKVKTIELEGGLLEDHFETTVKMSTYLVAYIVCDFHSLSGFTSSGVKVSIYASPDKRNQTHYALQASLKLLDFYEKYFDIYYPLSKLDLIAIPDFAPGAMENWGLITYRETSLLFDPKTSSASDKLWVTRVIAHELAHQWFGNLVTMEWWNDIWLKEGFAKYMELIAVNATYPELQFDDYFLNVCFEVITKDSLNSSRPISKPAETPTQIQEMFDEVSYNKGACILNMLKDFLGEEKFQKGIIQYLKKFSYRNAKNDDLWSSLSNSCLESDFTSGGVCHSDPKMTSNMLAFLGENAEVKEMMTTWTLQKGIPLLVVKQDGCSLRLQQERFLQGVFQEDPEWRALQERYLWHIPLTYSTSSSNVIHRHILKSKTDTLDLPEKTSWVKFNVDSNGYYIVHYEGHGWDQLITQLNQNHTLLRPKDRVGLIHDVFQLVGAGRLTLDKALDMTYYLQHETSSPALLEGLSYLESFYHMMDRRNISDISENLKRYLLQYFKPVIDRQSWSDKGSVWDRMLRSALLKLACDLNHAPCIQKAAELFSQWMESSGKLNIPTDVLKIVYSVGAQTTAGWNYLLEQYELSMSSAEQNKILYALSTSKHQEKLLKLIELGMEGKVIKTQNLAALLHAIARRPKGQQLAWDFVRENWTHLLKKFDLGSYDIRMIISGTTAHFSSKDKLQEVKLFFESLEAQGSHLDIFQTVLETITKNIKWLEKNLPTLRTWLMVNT

This test addresses ERAP2 (Homo sapiens, UniProt Q6P179). Description: biochemical.
Method: Substrate hydrolysis was assessed by measuring the fluorescence of free AMC at 14-s intervals, at 380nm and 460 nm excitation and emission wavelengths, respectively, in a Fluostar Optima Multiwave Plate Reader (BMG Labtec, Ortenberg, Germany).
By IC50 is commonly meant the concentration needed to halve the response being measured. The low end stands for higher potency, the high end for lower potency. The molecule `CC[C@H](C)[C@H](NC(=O)[C@H](CCC(N)=O)NC(=O)[C@H](Cc1ccccc1)NC(=O)[C@@H](NC(=O)[C@H](CC(=O)O)NC(=O)CNC(=O)[C@H](Cc1ccc(O)cc1)NC(=O)[C@H](CCCNC(=N)N)NC(=O)[C@H](CCCNC(=N)N)NC(=O)[C@H](C)NC(=O)[C@@H](N)CC(C)C)C(C)C)C(=O)O` (H-LARRYGDVFQI-OH) gave a half-maximal inhibitory concentration (IC50) of 18.6 µM.

As for `CC(C)C[C@H](NC(=O)[C@H](CCCCN)NC(=O)[C@H](CC(=O)O)NC(=O)CNC(=O)[C@H](Cc1ccccc1)NC(=O)[C@H](CCCNC(=N)N)NC(=O)[C@H](CCCNC(=N)N)NC(=O)[C@H](CC(C)C)NC(=O)[C@@H](N)CCC(N)=O)C(=O)N[C@@H](CC(N)=O)C(=O)N[C@@H](Cc1ccccc1)C(=O)O` (H-QLRRFGDKLNF-OH), the midpoint of inhibition, the IC50, lay at 13.2 µM.

`CC(C)C[C@H](NC(=O)[C@H](Cc1ccc(O)cc1)NC(=O)[C@@H]1CCCN1C(=O)[C@H](CO)NC(=O)[C@H](CCCCN)NC(=O)CNC(=O)[C@H](Cc1ccc(O)cc1)NC(=O)[C@H](CCCNC(=N)N)NC(=O)[C@H](C)NC(=O)[C@H](CC(C)C)NC(=O)[C@@H](N)CO)C(=O)N[C@@H](Cc1ccc(O)cc1)C(=O)O` (H-SLARYGKSPYLY-OH) came in with an IC50 of 2.88 µM.
